Key:
[1] = test system: rabbit; details: Prenatal developmental toxicity study, new zealand white, Oral, Gavage/Intubation, dose end: 19 GD
[2] = test system: rat; details: Multigenerational reproductive toxicity study, wistar, Oral, Feed, dose end: 2 generation
[3] = test system: rat; details: Prenatal developmental toxicity study, sprague dawley, Oral, Gavage/Intubation, dose end: 15 GD
[4] = test system: rat; details: Multigenerational reproductive toxicity study, other, Oral, Feed, dose end: 2 generation
[5] = test system: rat; details: Multigenerational reproductive toxicity study, other, Oral, Feed, dose end: 2 generation; remark: listed apart in the source
[6] = test system: rat; details: Subchronic oral toxicity in rodents, sprague dawley, Feed, dose end: 3 month
[7] = test system: rabbit; details: Prenatal developmental toxicity study, other, Oral, Gavage/Intubation, dose end: 18 GD
[8] = test system: rat; details: Prenatal developmental toxicity study, sprague dawley, Inhalation, Whole-Body, dose end: 20 GD
[9] = test system: rabbit; details: Prenatal developmental toxicity study, himalayan, Oral, Gavage/Intubation, dose end: 18 GD
[10] = test system: rat; details: Prenatal developmental toxicity study, wistar, Oral, Gavage/Intubation, dose end: 16 GD
[11] = test system: rat; details: Prenatal developmental toxicity study, other, Oral, Gavage/Intubation, dose end: 15 GD
[12] = test system: mouse; details: Prenatal developmental toxicity study, cd1, Oral, Gavage/Intubation, dose end: 15 GD
[13] = test system: rat; details: Subchronic oral toxicity in rodents, sprague dawley, Feed, dose end: 13 week
[14] = test system: rat; details: Prenatal developmental toxicity study, sprague dawley, Oral, Gavage/Intubation, dose end: 16 GD
[15] = test system: hamster; details: Prenatal developmental toxicity study, golden syrian, Oral, Gavage/Intubation, dose end: 15 GD
[16] = group: developmental, developmental / developmental malformation / brain / hydrocephaly + developmental / developmental malformation / bone / domed head
[17] = group: maternal, reproductive / reproductive performance / postimplantation loss / postimplantation loss + reproductive / reproductive performance / …
[18] = group: offspring, systemic / in life observation / body weight / offspring (pup) weight + systemic / organ weight / spleen / absolute + systemic / organ …
[19] = group: parental, systemic / organ weight / spleen / absolute
[20] = group: parental, systemic / organ weight / spleen / absolute + systemic / in life observation / body weight / body weight gain + systemic / pathology …
[21] = group: reproductive, reproductive / reproductive performance / estrous cycle / abnormal
[22] = group: developmental, developmental / developmental malformation / bone / fragmented + developmental / developmental malformation / bone / unossified + …
[23] = group: maternal, systemic / in life observation / body weight / body weight gain + systemic / in life observation / mortality / mortality + systemic / …
[24] = group: parental, systemic / in life observation / body weight / body weight + systemic / in life observation / body weight / body weight gain
[25] = group: reproductive, reproductive / reproductive performance / fertility / fertility + reproductive / reproductive performance / precoital interval / precoital …
[26] = group: offspring, systemic / in life observation / body weight / offspring (pup) weight
[27] = group: offspring, systemic / in life observation / body weight / offspring (pup) weight + developmental / developmental malformation / bone / extra …
[28] = group: parental, systemic / pathology microscopic / spleen / hemosiderosis
[29] = group: parental, systemic / pathology microscopic / spleen / hemosiderosis + systemic / in life observation / body weight / body weight gain + systemic / in …
[30] = group: cholinesterase, cholinesterase / cholinesterase / cholinesterase / cholinesterase (che)
[31] = group: systemic, systemic / hematology / anemia / anemia - hemolytic + systemic / in life observation / body weight / body weight gain + systemic / in life …
[32] = group: systemic, systemic / hematology / blood clotting / blood clotting - activated partial thromboplastin time + systemic / hematology / blood clotting / …
[33] = group: developmental, developmental / developmental malformation / bone / full supernumerary + systemic / in life observation / body weight / fetal weight
[34] = group: developmental, developmental / developmental malformation / bone / full supernumerary + systemic / in life observation / body weight / fetal weight + …
[35] = group: maternal, systemic / in life observation / body weight / body weight gain + systemic / in life observation / food consumption / food consumption
[36] = group: maternal, systemic / in life observation / body weight / body weight gain + systemic / in life observation / food consumption / food consumption + …
[37] = group: developmental, systemic / in life observation / body weight / fetal weight
[38] = group: developmental, systemic / in life observation / body weight / fetal weight + developmental / developmental malformation / bone / incomplete ossification
[39] = group: developmental, developmental / developmental malformation / bone / [other] + developmental / developmental malformation / bone / fragmented + developmental…
[40] = group: maternal, systemic / in life observation / mortality / mortality + systemic / in life observation / clinical signs / [other] + systemic / in life …
[41] = group: developmental, developmental / developmental malformation / bone / bent
[42] = group: maternal, systemic / in life observation / body weight / body weight + systemic / in life observation / body weight / body weight gain + systemic / in…
[43] = group: developmental, developmental / developmental malformation / bone / [other] + developmental / developmental malformation / bone / discontinuous
[44] = group: developmental, developmental / developmental malformation / bone / [other] + developmental / developmental malformation / bone / discontinuous + …
[45] = group: maternal, systemic / in life observation / water consumption / water consumption
[46] = group: maternal, systemic / in life observation / water consumption / water consumption + systemic / in life observation / body weight / body weight gain + …
[47] = group: maternal, systemic / in life observation / water consumption / water consumption + systemic / in life observation / clinical signs / altered breathing…
[48] = group: maternal, reproductive / reproductive performance / estrous cycle / length
[49] = group: systemic, systemic / clinical chemistry / calcium / calcium + systemic / clinical chemistry / globulins / globulins + systemic / clinical chemistry / …
[50] = group: developmental, developmental / developmental malformation / bone / incomplete ossification + developmental / developmental malformation / bone / unossified…
[51] = group: maternal, systemic / in life observation / body weight / body weight gain
[52] = group: maternal, systemic / in life observation / body weight / body weight gain + reproductive / reproductive performance / postimplantation loss / …
[53] = group: developmental, developmental / developmental malformation / bone / [other] + developmental / developmental malformation / bone / absent + developmental / …
[54] = group: maternal, systemic / in life observation / clinical signs / ataxia + systemic / in life observation / clinical signs / body temperature + systemic / …

Compound: O=c1[nH]c(=O)[nH]c(=O)[nH]1 [Cyanuric acid]
- LOAEL ([1]; group: developmental, developmental / developmental malformation / brain / hydrocephaly): 500 mg/kg/day
- LEL [1, 16]: 500 mg/kg/day
- NEL [1, 16]: 200 mg/kg/day
- NOAEL [1, 16]: 200 mg/kg/day
- LEL [1, 17]: 500 mg/kg/day
- LOAEL [1, 17]: > 500 mg/kg/day
- NEL [1, 17]: 200 mg/kg/day
- NOAEL [1, 17]: ≥ 500 mg/kg/day

Compound: Cc1cc(C)c(C2=C(OC(=O)CC(C)(C)C)C3(CCCC3)OC2=O)c(C)c1 [Spiromesifen]
- LEL [2, 18]: 13.2 mg/kg/day
- LOAEL [2, 18]: 13.2 mg/kg/day
- NEL [2, 18]: 3.3 mg/kg/day
- NOAEL [2, 18]: 3.3 mg/kg/day
- LEL [2, 19]: 13.2 mg/kg/day
- LOAEL [2, 19]: 13.2 mg/kg/day
- NEL [2, 20]: 3.3 mg/kg/day
- NOAEL [2, 20]: 3.3 mg/kg/day
- LEL [2, 21]: 18 mg/kg/day
- LOAEL [2, 21]: 18 mg/kg/day
- NEL [2, 21]: 4.6 mg/kg/day
- NOAEL [2, 21]: 4.6 mg/kg/day

Compound: [Li+].[O-]Cl [Lithium hypochlorite]
- LOAEL [3, 22]: 500 mg/kg/day
- NEL [3, 22]: 10 mg/kg/day
- NOAEL [3, 22]: 100 mg/kg/day
- LEL ([3]; group: developmental, developmental / developmental malformation / bone / kinked + developmental / developmental malformation / bone / thread-like + developmental…): 50 mg/kg/day
- LEL [3, 23]: 500 mg/kg/day
- LOAEL [3, 23]: 500 mg/kg/day
- NEL [3, 23]: 100 mg/kg/day
- NOAEL [3, 23]: 100 mg/kg/day

Compound: C[C@H]1O[C@H](OC2[C@@H](O)[C@@H](O)C(O)[C@H](O)[C@H]2O)[C@@H](N)C[C@@H]1N=C(N)C(=O)O (some centres undefined) [Kasugamycin]
- LEL [4, 24]: 70.3 mg/kg/day
- LOAEL [4, 24]: 70.3 mg/kg/day
- NEL [4, 24]: 13.7 mg/kg/day
- NOAEL [4, 24]: 13.7 mg/kg/day
- LEL [4, 25]: 425 mg/kg/day
- LOAEL [4, 25]: 425 mg/kg/day
- NEL [4, 25]: 70.3 mg/kg/day
- NOAEL [4, 25]: 70.3 mg/kg/day

Compound: C#CCN1CC(=O)N(COC(=O)C2C(C=C(C)C)C2(C)C)C1=O (centres undefined) [Imiprothrin]
- NEL [5, 26]: 126 mg/kg/day
- NOAEL [5, 26]: 126 mg/kg/day
- LEL [5, 27]: 369 mg/kg/day
- LOAEL [5, 27]: 369 mg/kg/day
- LEL [5, 28]: 144 mg/kg/day
- LOAEL [5, 28]: 144 mg/kg/day
- NEL [5, 29]: 14.7 mg/kg/day
- NOAEL [5, 29]: 14.7 mg/kg/day
- LEL [6, 30]: 399 mg/kg/day
- LOAEL [6, 30]: > 657 mg/kg/day
- NEL [6, 30]: 197 mg/kg/day
- NOAEL [6, 30]: ≥ 657 mg/kg/day
- LOAEL [6, 31]: 179 mg/kg/day
- NOAEL [6, 31]: 5.9 mg/kg/day
- LEL [6, 32]: 5.9 mg/kg/day
- NEL [6, 32]: < 5.9 mg/kg/day
- LEL [7, 33]: 100 mg/kg/day
- LOAEL [7, 33]: 100 mg/kg/day
- NEL [7, 34]: 30 mg/kg/day
- NOAEL [7, 34]: 30 mg/kg/day
- LOAEL [7, 35]: 100 mg/kg/day
- LEL [7, 36]: 100 mg/kg/day
- NEL [7, 36]: 30 mg/kg/day
- NOAEL [7, 36]: 30 mg/kg/day

Compound: Cc1cc(C)cc(C)c1 [1,3,5-Trimethylbenzene]
- LEL [8, 37]: 600 ppm
- LOAEL [8, 37]: 600 ppm
- NEL [8, 38]: 300 ppm
- NOAEL [8, 38]: 300 ppm
- LEL [8, 35]: 300 ppm
- LOAEL [8, 35]: 300 ppm
- NEL [8, 35]: 100 ppm
- NOAEL [8, 35]: 100 ppm

Compound: CCOC(=O)C1=NOC(c2ccccc2)(c2ccccc2)C1 [Isoxadifen-ethyl]
- LEL [9, 39]: 500 mg/kg/day
- LOAEL [9, 39]: 500 mg/kg/day
- NEL [9, 39]: 50 mg/kg/day
- NOAEL [9, 39]: 50 mg/kg/day
- LOAEL ([9]; group: maternal, systemic / in life observation / mortality / mortality): 500 mg/kg/day
- LEL [9, 40]: 500 mg/kg/day
- NEL [9, 40]: 50 mg/kg/day
- NOAEL [9, 40]: 50 mg/kg/day
- LEL [10, 41]: 120 mg/kg/day
- LOAEL [10, 41]: 120 mg/kg/day
- NEL [10, 41]: 15 mg/kg/day
- NOAEL [10, 41]: 15 mg/kg/day
- LEL [10, 42]: 1000 mg/kg/day
- LOAEL [10, 42]: 1000 mg/kg/day
- NEL [10, 42]: 120 mg/kg/day
- NOAEL [10, 42]: 120 mg/kg/day

Compound: OCCOCCO [Diethylene glycol]
- LEL [11, 43]: 4470 mg/kg/day
- LOAEL [11, 43]: 4470 mg/kg/day
- NEL [11, 44]: 1120 mg/kg/day
- NOAEL [11, 44]: 1120 mg/kg/day
- LEL [11, 45]: 4470 mg/kg/day
- LOAEL [11, 45]: 4470 mg/kg/day
- NEL [11, 46]: 1120 mg/kg/day
- NOAEL [11, 46]: 1120 mg/kg/day
- LEL [12, 37]: 11200 mg/kg/day
- LOAEL [12, 37]: 11200 mg/kg/day
- NEL [12, 37]: 2800 mg/kg/day
- NOAEL [12, 37]: 2800 mg/kg/day
- LEL [12, 45]: 2800 mg/kg/day
- LOAEL [12, 45]: 2800 mg/kg/day
- NEL [12, 47]: 559 mg/kg/day
- NOAEL [12, 47]: 559 mg/kg/day

Compound: Nc1nc(N)nc(Cl)n1 [2-Chloro-4,6-diamino-1,3,5-triazine]
- LEL [13, 48]: 7.6 mg/kg/day
- LOAEL [13, 48]: 7.6 mg/kg/day
- NEL [13, 48]: 0.7 mg/kg/day
- NOAEL [13, 48]: 0.7 mg/kg/day
- LOAEL [13, 49]: > 34.1 mg/kg/day
- NEL [13, 49]: 6.7 mg/kg/day
- NOAEL [13, 49]: ≥ 34.1 mg/kg/day
- LEL ([13]; group: systemic, systemic / clinical chemistry / protein / protein): 16.7 mg/kg/day
- LEL [14, 50]: 25 mg/kg/day
- LOAEL [14, 50]: 25 mg/kg/day
- NEL [14, 50]: 2.5 mg/kg/day
- NOAEL [14, 50]: 2.5 mg/kg/day
- LEL [14, 51]: 75 mg/kg/day
- LOAEL [14, 51]: 75 mg/kg/day
- NEL [14, 52]: 25 mg/kg/day
- NOAEL [14, 52]: 25 mg/kg/day

Compound: CC(C)(C#N)O[C@@H]1O[C@H](CO)[C@@H](O)[C@H](O)[C@H]1O [Linamarin]
- LOAEL [15, 53]: > 140 mg/kg/day
- NEL [15, 53]: 100 mg/kg/day
- NOAEL [15, 53]: ≥ 140 mg/kg/day
- LEL ([15]; group: developmental, developmental / developmental malformation / bone / absent + developmental / developmental malformation / bone / meningoencephalocele): 120 mg/kg/day
- LEL [15, 54]: 100 mg/kg/day
- LOAEL [15, 54]: > 140 mg/kg/day
- NEL [15, 54]: 70 mg/kg/day
- NOAEL [15, 54]: ≥ 140 mg/kg/day
